Assay results taken from PubChem BioAssay AID330 (DTP/NCI, 2004).
“And” between values parts separate entries of the source, which are not always exact repeats. Equal entries are not always repeated. Toxic doses and inconclusive results are not listed. The calls were made as follows: active = survival T/C of 150% or more; inactive = T/C below 125% in these data.

Test system: P388 leukemia ip, CD2F1 mice, survival T/C
Test: NCI In Vivo Anticancer Drug Screen. Data for tumor model P388 Leukemia (intraperitoneal) in CD2F1 (CDF1) mice
Details: endpoint: median survival time, higher = longer survival
Method in brief: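 Mice carrying the transplanted tumor received test compound or vehicle. Survival was recorded in each group, and the value is the treated-group measurement divided by that of the vehicle-treated control group.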

[1] = dose: 100.0 mg/kg/injection, schedule: Q01DX009 (ip), vehicle: saline with Tween-80
[2] = dose: 200.0 mg/kg/injection, schedule: Q01DX009 (ip), vehicle: saline with Tween-80
[3] = dose: 7.5 mg/kg/injection, schedule: Q01DX005 (ip), vehicle: saline with Tween-80
[4] = dose: 50.0 mg/kg/injection, schedule: Q01DX009 (ip), vehicle: saline
[5] = dose: 100.0 mg/kg/injection, schedule: Q01DX009 (ip), vehicle: saline
[6] = dose: 200.0 mg/kg/injection, schedule: Q01DX009 (ip), vehicle: saline
[7] = dose: 25.0 mg/kg/injection, schedule: Q01DX009 (ip), vehicle: saline with Tween-80
[8] = dose: 50.0 mg/kg/injection, schedule: Q01DX009 (ip), vehicle: saline with Tween-80
[9] = dose: 60.0 mg/kg/injection, schedule: Q01DX005 (ip), vehicle: saline with Tween-80
[10] = dose: 120.0 mg/kg/injection, schedule: Q01DX005 (ip), vehicle: saline with Tween-80
[11] = dose: 240.0 mg/kg/injection, schedule: Q01DX005 (ip), vehicle: saline with Tween-80
[12] = dose: 50.0 mg/kg/injection, schedule: Q01DX005 (ip), vehicle: Klucel (hydroxypropylcellulose) (HPC)
[13] = dose: 100.0 mg/kg/injection, schedule: Q01DX001 (ip), vehicle: saline with Tween-80
[14] = dose: 200.0 mg/kg/injection, schedule: Q01DX001 (ip), vehicle: saline with Tween-80
[15] = dose: 50.0 mg/kg/injection, schedule: Q01DX005 (ip), vehicle: saline with Tween-80
[16] = dose: 100.0 mg/kg/injection, schedule: Q01DX005 (ip), vehicle: saline with Tween-80

Measured: T/C

CCN(CC)c1ccc2nc3c4ccccc4c(=O)cc-3n(-c3ccccc3)c2c1
inactive: [1] 99 % of control | [2] 101 % of control | dose: 400.0 mg/kg/injection, schedule: Q01DX009 (ip), vehicle: saline with Tween-80 115 % of control

O=C1NC(=O)c2c1c1cnn(-c3ccccc3)c1n1cccc21
inactive: [3] 96 % of control | dose: 15.0 mg/kg/injection, schedule: Q01DX005 (ip), vehicle: saline with Tween-80 96 % of control | dose: 30.0 mg/kg/injection, schedule: Q01DX005 (ip), vehicle: saline with Tween-80 87 % of control

CCOC(=O)C(=O)Nc1ccccc1C#N
inactive: dose: 50.0 mg/kg/injection, schedule: Q01DX009 (ip), vehicle: saline + alcohol 105 % of control | dose: 100.0 mg/kg/injection, schedule: Q01DX009 (ip), vehicle: saline + alcohol 99 % of control | dose: 200.0 mg/kg/injection, schedule: Q01DX009 (ip), vehicle: saline + alcohol 101 % of control

CCC[CH2][Sn]([CH2]CCC)([CH2]CCC)[CH2]CC[N+](C)(CCO)CCO.CS(=O)(=O)[O-]
inactive: dose: 3.12 mg/kg/injection, schedule: Q01DX009 (ip), vehicle: saline 87 % of control | dose: 6.25 mg/kg/injection, schedule: Q01DX009 (ip), vehicle: saline 91 % of control | dose: 12.5 mg/kg/injection, schedule: Q01DX009 (ip), vehicle: saline 97 % of control | [4] 86 % of control | [5] 95 % of control | [6] 98 % of control

CCCN(CCC)CCCC#N
inactive: [7] 90 % of control | [8] 90 % of control | [1] 100 % of control

O=C(NC(Cc1ccccc1)C(=O)CCl)OCc1ccccc1 (configuration not stated)
inactive: dose: 25.0 mg/kg/injection, schedule: Q01DX009 (ip), vehicle: other 107 % of control | dose: 25.0 mg/kg/injection, schedule: Q04DX003 (ip), vehicle: saline with Tween-80 115 % of control | dose: 50.0 mg/kg/injection, schedule: Q01DX009 (ip), vehicle: other 105 % of control | dose: 50.0 mg/kg/injection, schedule: Q04DX003 (ip), vehicle: saline with Tween-80 111 % of control | dose: 100.0 mg/kg/injection, schedule: Q04DX003 (ip), vehicle: saline with Tween-80 119 % of control

Nc1cc2c(c[n+](CCCCCCCC[n+]3cc4c5ccccc5c(N)cc4c4ccccc43)c3ccccc23)c2ccccc12
active: dose: 1.56 mg/kg/injection, schedule: Q04DX003 (ip), vehicle: other 161 % of control | dose: 3.13 mg/kg/injection, schedule: Q04DX003 (ip), vehicle: other 158 % of control and 161 % of control | dose: 6.25 mg/kg/injection, schedule: Q04DX003 (ip), vehicle: other 152 % of control and 205 % of control | dose: 12.5 mg/kg/injection, schedule: Q04DX003 (ip), vehicle: other 168 % of control
inactive: dose: 25.0 mg/kg/injection, schedule: Q04DX003 (ip), vehicle: other 93 % of control | dose: 50.0 mg/kg/injection, schedule: Q04DX003 (ip), vehicle: other 86 % of control

O=C1c2ccccc2C(=O)N1CCNCCN1C(=O)c2ccccc2C1=O
inactive: [9] 103 % of control | [10] 93 % of control | [11] 93 % of control

O=Ic1ccccc1
inactive: dose: 3.12 mg/kg/injection, schedule: Q01DX009 (ip), vehicle: saline with Tween-80 104 % of control | dose: 6.25 mg/kg/injection, schedule: Q01DX009 (ip), vehicle: saline with Tween-80 108 % of control | dose: 12.5 mg/kg/injection, schedule: Q01DX009 (ip), vehicle: saline with Tween-80 114 % of control | [7] 112 % of control | [8] 99 % of control

CCOC(=O)c1ccccc1-n1nnc(C#N)c1N
inactive: [12] 105 % of control | dose: 100.0 mg/kg/injection, schedule: Q01DX005 (ip), vehicle: Klucel (hydroxypropylcellulose) (HPC) 115 % of control

O=[N+]([O-])c1ccc(S(=O)(=O)/N=C/c2ccccc2)cc1
inactive: [8] 96 % of control | [1] 98 % of control | [2] 95 % of control

CCOC(=O)C(C#N)c1cc(O)c(O)c2ccc(O)cc12 (configuration not stated)
inactive: [13] 97 % of control | [14] 107 % of control | dose: 400.0 mg/kg/injection, schedule: Q01DX001 (ip), vehicle: saline with Tween-80 106 % of control

Cn1c(=O)c2snnc2n(C)c1=O
inactive: dose: 100.0 mg/kg/injection, schedule: Q04DX003 (ip), vehicle: Klucel (hydroxypropylcellulose) (HPC) 107 % of control | dose: 200.0 mg/kg/injection, schedule: Q04DX003 (ip), vehicle: Klucel (hydroxypropylcellulose) (HPC) 104 % of control

CC1CC(=O)N1C(=O)CCN=C=S (configuration not stated)
inactive: [9] 111 % of control | [10] 120 % of control | [11] 117 % of control

COC(=O)C(N)Cc1ccc(O)c(O)c1 (configuration not stated)
inactive: [4] 101 % of control | dose: 50.0 mg/kg/injection, schedule: Q08HX028 (ip), vehicle: water 99 % of control | [5] 108 % of control and 115 % of control | dose: 100.0 mg/kg/injection, schedule: Q08HX028 (ip), vehicle: water 102 % of control | [6] 111 % of control and 121 % of control | dose: 200.0 mg/kg/injection, schedule: Q08HX028 (ip), vehicle: water 120 % of control
active: dose: 800.0 mg/kg/injection, schedule: Q01DX009 (ip), vehicle: saline 156 % of control

CCOC(=O)C(NC(=O)C(CO)n1c(-c2ccccc2)c(-c2ccccc2)oc1=O)C(=O)OCC (configuration not stated)
inactive: [9] 105 % of control | [10] 104 % of control | [11] 90 % of control

COC(=O)NC1C(C)OC(OC2C/C=C(/C)C3C=CC4C(OC5CC(OC6CC(O)C(OC7CC(O)C(OC)C(C)O7)C(C)O6)C(O)C(C)O5)C(C)CC(C)C4C3(C)/C(O)=C3\C(=O)OC4(CC(C)C(CO)=CC4/C=C\2C)C3=O)CC1(C)[N+](=O)[O-] (configuration not stated)
inactive: [12] 118 % of control and 123 % of control

CNC(=O)Nc1ccc(C2(C)SCCS2)cc1
inactive: [9] 97 % of control | [10] 87 % of control | [11] 90 % of control

O=C(O)c1cccc(C(=O)O)c1O
inactive: dose: 50.0 mg/kg/injection, schedule: Q01DX001 (ip), vehicle: saline with Tween-80 102 % of control | [8] 100 % of control | [13] 105 % of control | [1] 103 % of control | [14] 110 % of control | [2] 94 % of control

CCOC(=O)C(C(=O)COC)C(=O)OCC
inactive: dose: 12.5 mg/kg/injection, schedule: Q01DX009 (ip), vehicle: water 100 % of control | dose: 25.0 mg/kg/injection, schedule: Q01DX009 (ip), vehicle: water 99 % of control | dose: 50.0 mg/kg/injection, schedule: Q01DX009 (ip), vehicle: water 99 % of control | dose: 100.0 mg/kg/injection, schedule: Q01DX009 (ip), vehicle: water 98 % of control | dose: 200.0 mg/kg/injection, schedule: Q01DX009 (ip), vehicle: water 97 % of control

CCOc1ccc(-c2nn(C(=O)c3ccccc3)c(-c3ccccc3)c2N=Nc2ccc(S(=O)(=O)Nc3nnc(C)s3)cc2)cc1
inactive: dose: 100.0 mg/kg/injection, schedule: Q04DX002 (ip), vehicle: saline with Tween-80 93 % of control | dose: 200.0 mg/kg/injection, schedule: Q04DX002 (ip), vehicle: saline with Tween-80 89 % of control | dose: 400.0 mg/kg/injection, schedule: Q04DX002 (ip), vehicle: saline with Tween-80 93 % of control

Cn1c(=NCCc2ccccc2)oc2ccc(Cl)cc21
inactive: [15] 103 % of control | [16] 100 % of control | dose: 200.0 mg/kg/injection, schedule: Q01DX005 (ip), vehicle: saline with Tween-80 100 % of control

CCC[CH2][Sn]([CH2]CCC)([S]/C(C#N)=N/N=C/c1ccc(N(C)C)cc1)[S]/C(C#N)=N/N=C/c1ccc(N(C)C)cc1
inactive: [3] 117 % of control

CCCc1[nH]n(-c2ccccc2)c(=O)c1N=Nc1cccc(C(F)(F)F)c1
inactive: [4] 93 % of control | [5] 96 % of control | [6] 90 % of control

CCN(CC)CCNC(=O)c1ccc2c(c1O)C(=O)c1ccccc1C2=O
inactive: [15] 106 % of control | [16] 106 % of control
